# Experimental data: US11046714B2, “2,2-difluorodioxolo A2A receptor antagonists” (Merck Sharp & Dohme Corp., priority 2013, dated 2021)
# pKi: −log10 of the molar value.
# Target: human A2A receptor (Homo sapiens (Human), UniProt P29274)
# Experiment: competition binding assay using Scintillation Proximity technology
# Conditions: membranes from CHO-K1 cells expressing the human A2a receptor; 2.0 nM tritiated compound; Cheng-Prusoff
# In short: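 Membranes (1.0 μg) from CHO-K1 cells expressing human A2A were treated with adenosine deaminase, then incubated 1 h at room temperature with compound (3000–0.15 nM) and 2.0 nM tritiated SCH-type ligand on WGA SPA beads in PBS plus 10 mM MgCl2. Nonspecific binding was defined with 1 μM CGS 15943. Ki was derived from EC50 via Cheng-Prusoff.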
# Chain of human A2A receptor (P29274 whole entry): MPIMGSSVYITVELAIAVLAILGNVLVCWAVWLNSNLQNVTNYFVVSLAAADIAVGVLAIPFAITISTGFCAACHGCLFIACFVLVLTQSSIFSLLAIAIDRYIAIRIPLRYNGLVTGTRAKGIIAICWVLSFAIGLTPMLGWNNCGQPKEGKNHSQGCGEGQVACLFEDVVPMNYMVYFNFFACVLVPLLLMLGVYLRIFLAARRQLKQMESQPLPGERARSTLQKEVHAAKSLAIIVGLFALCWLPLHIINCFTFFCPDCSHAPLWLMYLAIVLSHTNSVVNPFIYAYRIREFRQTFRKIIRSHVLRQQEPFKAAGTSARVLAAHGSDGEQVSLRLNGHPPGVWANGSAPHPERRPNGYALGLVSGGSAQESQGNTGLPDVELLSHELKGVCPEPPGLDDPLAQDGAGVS
row,Structure (SMILES),pKi
1,"C[C@H](Cc1nc2c3ccc4c(c3nc(N)n2n1)OC(F)(F)O4)N1CCCC(C)(F)C1 (single isomer, unassigned) [Example 86, 2,2-difluoro-8-{(2R)-2-[(3R or 3S)-3-fluoro-3-methylpiperidin-1-yl]propyl}[1,3]dioxolo[4,5-h][1,2,4]triazolo[1,5-c]quinazolin-5-amine]",7.80
2,"CC(Cc1nc2c3ccc4c(c3nc(N)n2n1)OC(F)(F)O4)N1CC(F)(F)C1 (single isomer, unassigned) [Example 94, (R or S)-8-[2-(3,3-difluoroazetidin-1-yl)propyl]-2,2-difluoro[1,3] dioxolo[4,5-h][1,2,4]triazolo[1,5-c] quinazolin-5-amine]",8.39
3,"CC(c1nc2c3ccc4c(c3nc(N)n2n1)OC(F)(F)O4)N1CCCC(F)(F)C1 (single isomer, unassigned) [Example 136, 8-[(1S or 1R)-1-(3,3-difluoropiperidin-1-yl)ethyl]-2,2-difluoro[1,3]dioxolo [4,5-h][1,2,4]triazolo[1,5-c] quinazolin-5-amine]",7.60
4,"Cc1ncc(CN(CCc2nc3c4ccc5c(c4nc(N)n3n2)OC(F)(F)O5)CC2CC2)s1 [Example 61, 8-(2-{(cyclopropylmethyl)[(2-methyl-1,3-thiazol-5-yl)methyl]amino}ethyl)-2,2-difluoro[1,3]dioxolo[4,5-h][1,2,4]triazolo[1,5-c]quinazolin-5-amine]",8.82
5,"Nc1nc2c3c(ccc2c2nc(CCN4CCN(c5cccc(F)c5)C(=O)C4)nn12)OC(F)(F)O3 [Example 50, 4-[2-(5-amino-2,2-difluoro[1,3]dioxolo[4,5-h][1,2,4]triazolo [1,5-c]quinazolin-8-yl)ethyl]-1-(3-fluorophenyl)piperazin-2-one]",8.96
6,"Nc1nc2c3c(ccc2c2nc(CCCN4Cc5cccnc5C4)nn12)OC(F)(F)O3 [Example 137, 8-(3-(5H-pyrrolo[3,4-b]pyridin-6(7H)-yl)propyl)-2,2-difluoro-[1,3]dioxolo[4,5-h][1,2,4]triazolo[1,5-c]quinazolin-5-amine]",8.72
7,"Nc1nc2c3c(ccc2c2nc(CN4CC(F)(C(F)(F)F)C4)nn12)OC(F)(F)O3 [Example 114, 2,2-difluoro-8-{[3-fluoro-3-(trifluoromethyl)azetidin-1-yl]methyl} [1,3]dioxolo[4,5-h][1,2,4]triazolo[1,5-c]quinazolin-5-amine]",8.85

# More lines, now with the values ahead:
row,pKi,Structure (SMILES)
1,6.74,"Nc1nc2c3c(ccc2c2nc(C[C@@H](N)C4CC4)nn12)OC(F)(F)O3 [Example 159, 8-[(2R)-2-amino-2-cyclopropylethyl]-2,2-difluoro[1,3]dioxolo[4,5-h][1,2,4]triazolo[1,5-c]quinazolin-5-amine]"
2,7.17,"CC1(C)CCCN(CCc2nc3c4ccc5c(c4nc(N)n3n2)OC(F)(F)O5)C1 [Example 39, 8-[2-(3,3-dimethylpiperidin-1-yl)ethyl]-2,2-difluoro[1,3] dioxolo[4,5-h][1,2,4]triazolo [1,5-c]quinazolin-5-amine]"
3,9.05,"Nc1nc2c3c(ccc2c2nc(CCN4CCCC(F)(C(F)(F)F)C4)nn12)OC(F)(F)O3 (single isomer, unassigned) [Example 73, (R or S)-2,2-difluoro-8-(2-(3-fluoro-3-(trifluoromethyl)piperidin-1-yl)ethyl)-[1,3]dioxolo[4,5-h][1,2,4]triazolo[1,5-c]quinazolin-5-amine]"
4,7.44,"C[C@@H]1CN(CCc2nc3c4ccc5c(c4nc(N)n3n2)OC(F)(F)O5)C[C@@H](C)O1 [Example 63, 8-{2-[(2R,6R)-2,6-dimethylmorpholin-4-yl]ethyl}-2,2-difluoro[1,3]dioxolo[4,5-h][1,2,4] triazolo[1,5-c]quinazolin-5-amine]"
5,8.77,"CN1CCN(CCc2nc3c4ccc5c(c4nc(N)n3n2)OC(F)(F)O5)CC1=O [Example 47, 4-[2-(5-amino-2,2-difluoro[1,3]dioxolo[4,5-h][1,2,4]triazolo [1,5-c]quinazolin-8-yl)ethyl]-1-methylpiperazin-2-one]"
